# Where “and” joins values, the source holds several entries; their conditions need not be identical. Identical values can stand only once. Entries after “also recorded” stand apart in the source; their conditions may differ.
# What was measured:
# [1] = 5 min p.i., literature value; cited from earlier work
# S1P1 [2] = biological target: T1, S1P1 (Rattus norvegicus (Rat), UniProt P48303); experiment: In vitro autoradiography of [18F]12a in rat brain slices, SEW2871 blocking; assay type: binding; settings: rat brain sections, ~6 nM tracer, 10 μM SEW2871, 60 min RT
# Experimental: Adult female Lewis rats (n=2, 100-125 g, Charles River) were used to perform the autoradiography study. The rats (n=2) was euthanized and the brains were collected and cut into 20 μm sequential sections using a Microm cryotome and mounted on glass slides. […] Following the incubation, the brain sections were washed and exposed to the Storage Phosphor Screen in an imaging cassette overnight in −20° C. at dark for 12 h. The distribution of radioactivity was visualized by a Fuji Bio-Imaging Analyzer FLA-7000 (Fuji Photo Film, Tokyo, Japan). Photo-stimulated luminescence (PSL) from the brain slices was quantified using Multi Gauge v3.0 software (Fuji Photo Film Co., Tokyo, Japan). Data were background-corrected, and expressed as photo-stimulated luminescence signals per square millimeter (PSL/mm^2).
# [3] = Ex vivo biodistribution in female Lewis rats; parameters: species or system rat; settings: for Tissue uptake, Blood / Tissue uptake, Bone / Tissue uptake, Brain / Tissue uptake, Fat / Tissue uptake, Heart / Tissue uptake, Kidney / Tissue uptake, Liver / Tissue uptake, Lung / Tissue uptake, Muscle / Tissue uptake, Pancreas / Tissue uptake, Spleen / Tissue uptake, Thymus: n = 4
# Text: Organs of blood, heart, lung, muscle, fat, pancreas, spleen, kidney, liver, thymus, brain, and bone were dissected and collected for counting. All the samples were counted with a dilution of the injectate on an automated well counter (Beckman Gamma 8000 well counter). Tissues were weighed and the uptake was reported as background and decay-corrected percent injected dose per gram (% ID/g).
# The whole brains were quickly harvested and dissected into regions of cerebellum, brain stem, cortex, striatum, thalamus, and hippocampus, the remainder of the brain was also collected to determine the total brain uptake. Organs of blood, heart, lung, muscle, fat, pancreas, spleen, kidney, liver, thymus, and bone were also dissected and collected for counting. All the samples were counted with a dilution of the injectate on an automated well counter (Beckman Gamma 8000 well counter). Tissues were weighed and the uptake was reported as background and decay-corrected percent injected dose per gram (% ID/g).
# S1P1 [4] = biological target: T1, S1P1; experiment: MicroPET and tracer kinetic modeling in EAE rat model, lumbar spinal cord; assay type: in vivo; settings: for Visualization of rat lumbar spinal cord by microPET: EAE and sham rats; for 2TCM Vd / LoganAIF Vd: lumbar spinal cord, n = 3-4; for Tracer uptake in lumbar spinal cord, EAE / Tracer uptake in lumbar spinal cord, sham: summed SUV values 10-60 min post injection, n=3-4; for Increase of tracer uptake in EAE rat lumbar spinal cord compared with shams: microPET; for Increase of tracer uptake in EAE rat lumbar spinal cord compared with shams / Averaged tracer uptake in sham rat spinal cord: 10-60 min post injection; for Averaged tracer uptake in sham rat spinal cord / Tracer uptake in lumbar spinal cord, sham: sham rats
# Experimental: MicroPET scans were performed using an Inveon PET/CT system (Siemens Inc., Knoxville, Tenn.). […] Each rat was secured to a custom-designed acrylic bed equipped with a nosecone for gas anesthesia. PET/CT scans were conducted under 1.5-2% isoflurane anesthesia with the rat placed in transaxial position and centered with the T13 vertebral spine in the field of view. […] A list mode protocol was used with 60-min dynamic data acquisition.
# PET image data was processed using filter back projection algorithm with attenuation and scatter corrections. The data were reconstructed per time frame employing an iterative reconstructional algorithm (three-dimensional ordered subset expectation maximization (3D-OSEM), maximum a posteriori (MAP)) and corrected for decay, random coincidences, scatter, and attenuation. […] Image data was analyzed using Inveon Research Workstation software IRW 4.2 (Siemens Inc., Knoxville, Tenn.). The regions of interest (ROI), the lumbar spinal cord and bilateral common carotid arteries, were drawn over the co-registered PET/CT images using the standard protocol published previously. Time-activity curves (TACs) were obtained and were expressed as % ID/g. A two-tailed t-test was used for the comparison of the tracer uptake in EAE rat lumbar spinal cord versus sham. A P value less than 0.05 was considered statistically significant. Time-activity curves were further analyzed using 2-tissue-compartment model (2TCM), as well as Logan graphical analysis, using the ROI over bilateral common carotid arteries for image-based arterial blood input function.
# [5] = Nonhuman primate (NHP) brain microPET scan; assay type: in vivo, macaques; settings: normal NHP; for Max SUV value in total brain / Blood-brain barrier crossing, NHP brain: microPET; for Time to max SUV in total brain: post injection
# Experimental: To examine if newly-synthesized S1P1 radioligands could cross the BBB of NHPs, two male macaques (9-10 kg) were studied with a microPET Focus 220 scanner (Concorde/CTI/Siemens Microsystems, Knoxville, Tenn.). The welfare of the animals conformed to the requirements of National Institutes of Health (NIH). This work was conducted at the Nonhuman Primate Facility of Washington University in St. Louis with approval from the IACUC. Animals were maintained in facilities with 12-hour dark and light cycles, given access to food and water ad libitum and provided a variety of psychologically enriching tasks to prevent inappropriate deprivation. Animals were scanned under anesthesia (induced with ketamine and glycopyrrolate and maintained with inhalation isoflurane). Core temperature was kept about 37° C. with a heated water blanket. The head was secured in a head holder with the brain in the center of the field of view.
# PET scans were collected from O-120 min with the following time frames: 3×1 min, 4×2 min, 3×3 min and 20×5 min. Emission data were corrected for dead time, scatter and attenuation and then reconstructed to a final resolution of 2.0 mm full-width half maximum in all 3 dimensions at the center of the field of view. PET and MRI images were co-registered using automated image registration program (AIR). For quantitative analyses, three-dimensional ROI (the global brain) was identified on the MRI and transformed to the reconstructed PET images to obtain time-activity curves. Activity measures were standardized to body weight and the dose of radioactivity injected to yield standardized uptake value (SUV).
# T1 sequence (P48303 whole entry): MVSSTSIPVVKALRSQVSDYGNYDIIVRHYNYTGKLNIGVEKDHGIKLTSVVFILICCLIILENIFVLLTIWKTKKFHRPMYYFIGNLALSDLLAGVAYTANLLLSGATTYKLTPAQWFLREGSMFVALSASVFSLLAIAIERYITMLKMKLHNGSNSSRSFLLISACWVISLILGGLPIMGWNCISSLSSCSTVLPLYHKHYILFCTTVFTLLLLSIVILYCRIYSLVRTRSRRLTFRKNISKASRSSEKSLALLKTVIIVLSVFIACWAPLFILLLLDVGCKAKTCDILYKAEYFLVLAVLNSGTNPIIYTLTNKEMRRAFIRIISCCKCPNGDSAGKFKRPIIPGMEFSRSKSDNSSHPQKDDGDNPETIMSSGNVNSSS
structure (smiles),measurement,setting,value
O=C(O)C1CN(Cc2ccc(-c3noc(-c4ccc(OCC[18F])c(C(F)(F)F)c4)n3)cc2)C1 [[^18F]4],Brain uptake of previous radiotracer,[1],0.49 % ID/g
OCCOCc1ccc(-c2noc(-c3ccc(OCC[18F])c(C(F)(F)F)c3)n2)cc1 [[^18F]12a],Reduction of radioactivity by SEW2871 blocking,S1P1 [2],~30%
same,"Tissue uptake, Blood",[3]; 5 min p.i.,0.36 % ID/g and 0.36 ± 0.04 % ID/g
same,"Tissue uptake, Blood",[3]; 30 min p.i.,0.51 ± 0.01 % ID/g
same,"Tissue uptake, Blood",[3]; 60 min p.i.,0.57 ± 0.03 % ID/g
same,"Tissue uptake, Blood",[3]; 120 min p.i.,0.66 ± 0.04 % ID/g
same,"Tissue uptake, Bone",[3]; 5 min p.i.,0.40 ± 0.04 % ID/g
same,"Tissue uptake, Bone",[3]; 30 min p.i.,0.34 ± 0.02 % ID/g
same,"Tissue uptake, Bone",[3]; 60 min p.i.,0.34 ± 0.01 % ID/g
same,"Tissue uptake, Bone",[3]; 120 min p.i.,0.42 ± 0.02 % ID/g
same,"Tissue uptake, Brain",[3]; 5 min p.i.,1.31 % ID/g and 1.31 ± 0.06 % ID/g
same,"Tissue uptake, Brain",[3]; 30 min p.i.,1.34 ± 0.08 % ID/g
same,"Tissue uptake, Brain",[3]; 60 min p.i.,1.13 ± 0.05 % ID/g
same,"Tissue uptake, Brain",[3]; 120 min p.i.,0.87 ± 0.04 % ID/g
same,"Tissue uptake, Fat",[3]; 5 min p.i.,0.24 % ID/g and 0.24 ± 0.03 % ID/g
same,"Tissue uptake, Fat",[3]; 30 min p.i.,1.63 ± 0.36 % ID/g
same,"Tissue uptake, Fat",[3]; 60 min p.i.,1.50 ± 0.08 % ID/g
same,"Tissue uptake, Fat",[3]; 120 min p.i.,1.91 ± 0.19 % ID/g
same,"Tissue uptake, Heart",[3]; 5 min p.i.,1.16 % ID/g and 1.16 ± 0.01 % ID/g
same,"Tissue uptake, Heart",[3]; 30 min p.i.,1.01 ± 0.08 % ID/g
same,"Tissue uptake, Heart",[3]; 60 min p.i.,0.85 ± 0.04 % ID/g
same,"Tissue uptake, Heart",[3]; 120 min p.i.,0.74 ± 0.03 % ID/g
same,"Tissue uptake, Kidney",[3]; 5 min p.i.,2.14 % ID/g and 2.14 ± 0.14 % ID/g
same,"Tissue uptake, Kidney",[3]; 30 min p.i.,1.43 % ID/g and 1.43 ± 0.08 % ID/g
same,"Tissue uptake, Kidney",[3]; 60 min p.i.,1.18 ± 0.04 % ID/g
same,"Tissue uptake, Kidney",[3]; 120 min p.i.,1.01 ± 0.04 % ID/g
same,"Tissue uptake, Liver",[3]; 5 min p.i.,4.87 % ID/g and 4.87 ± 0.27 % ID/g
same,"Tissue uptake, Liver",[3]; 30 min p.i.,3.58 % ID/g and 3.58 ± 0.28 % ID/g
same,"Tissue uptake, Liver",[3]; 60 min p.i.,3.32 ± 0.33 % ID/g
same,"Tissue uptake, Liver",[3]; 120 min p.i.,3.23 ± 0.10 % ID/g
same,"Tissue uptake, Lung",[3]; 5 min p.i.,1.31 % ID/g and 1.31 ± 0.01 % ID/g
same,"Tissue uptake, Lung",[3]; 30 min p.i.,1.20 ± 0.06 % ID/g
same,"Tissue uptake, Lung",[3]; 60 min p.i.,1.01 ± 0.04 % ID/g
same,"Tissue uptake, Lung",[3]; 120 min p.i.,0.87 ± 0.02 % ID/g
same,"Tissue uptake, Muscle",[3]; 5 min p.i.,0.28 % ID/g and 0.28 ± 0.02 % ID/g
same,"Tissue uptake, Muscle",[3]; 30 min p.i.,0.54 ± 0.01 % ID/g
same,"Tissue uptake, Muscle",[3]; 60 min p.i.,0.49 ± 0.03 % ID/g
same,"Tissue uptake, Muscle",[3]; 120 min p.i.,0.42 ± 0.01 % ID/g
same,"Tissue uptake, Pancreas",[3]; 5 min p.i.,2.19 % ID/g and 2.19 ± 0.04 % ID/g
same,"Tissue uptake, Pancreas",[3]; 30 min p.i.,1.52 % ID/g and 1.52 ± 0.04 % ID/g
same,"Tissue uptake, Pancreas",[3]; 60 min p.i.,1.21 ± 0.10 % ID/g
same,"Tissue uptake, Pancreas",[3]; 120 min p.i.,0.98 ± 0.05 % ID/g
same,"Tissue uptake, Spleen",[3]; 5 min p.i.,1.14 % ID/g and 1.14 ± 0.10 % ID/g
same,"Tissue uptake, Spleen",[3]; 30 min p.i.,0.79 % ID/g and 0.79 ± 0.06 % ID/g
same,"Tissue uptake, Spleen",[3]; 60 min p.i.,0.65 ± 0.02 % ID/g
same,"Tissue uptake, Spleen",[3]; 120 min p.i.,0.55 ± 0.03 % ID/g
same,"Tissue uptake, Thymus",[3]; 5 min p.i.,0.79 % ID/g and 0.79 ± 0.12 % ID/g
same,"Tissue uptake, Thymus",[3]; 30 min p.i.,0.68 ± 0.06 % ID/g
same,"Tissue uptake, Thymus",[3]; 60 min p.i.,0.58 ± 0.04 % ID/g
same,"Tissue uptake, Thymus",[3]; 120 min p.i.,0.51 ± 0.05 % ID/g
same,Defluorination in vivo (bone uptake 5 to 120 min),[3]; bone radioactivity unchanged,no metabolic defluorination in vivo
same,Visualization of rat lumbar spinal cord by microPET,S1P1 [4],clear visualization of lumbar spinal cord
same,2TCM Vd,S1P1 [4]; EAE rats,2.18 ± 0.20 mL/g
same,LoganAIF Vd,S1P1 [4]; EAE rats,2.18 ± 0.20 mL/g
same,"Tracer uptake in lumbar spinal cord, EAE",S1P1 [4]; EAE rats,1.42±0.14 SUV
same,2TCM Vd,S1P1 [4]; Sham rats,1.80 ± 0.20 mL/g
same,LoganAIF Vd,S1P1 [4]; Sham rats,1.77 ± 0.24 mL/g
same,Increase of tracer uptake in EAE rat lumbar spinal cord compared with shams,S1P1 [4],29.5%
same,Averaged tracer uptake in sham rat spinal cord,S1P1 [4],1.0-1.1
same,"Tracer uptake in lumbar spinal cord, sham",S1P1 [4],1.10±0.06 SUV
same,Max SUV value in total brain,[5],~2.9 SUV
same,"Blood-brain barrier crossing, NHP brain",[5]; listed as 18F-TZ4877,able to cross the blood brain barrier; also recorded: able to cross the BBB
same,Time to max SUV in total brain,[5],~5 min
OCCOCCOCc1ccc(-c2noc(-c3ccc(OCC[18F])c(C(F)(F)F)c3)n2)cc1 [[^18F]12b],Visualization of rat lumbar spinal cord by microPET,S1P1 [4],clear visualization of lumbar spinal cord
same,2TCM Vd,S1P1 [4]; EAE rats,2.30 ± 0.13 mL/g
same,LoganAIF Vd,S1P1 [4]; EAE rats,2.27 ± 0.18 mL/g
same,"Tracer uptake in lumbar spinal cord, EAE",S1P1 [4]; EAE rats,1.20±0.04 SUV
same,2TCM Vd,S1P1 [4]; Sham rats,1.76 ± 0.19 mL/g
same,LoganAIF Vd,S1P1 [4]; Sham rats,1.75 ± 0.21 mL/g
same,Increase of tracer uptake in EAE rat lumbar spinal cord compared with shams,S1P1 [4],22.9%
same,Averaged tracer uptake in sham rat spinal cord,S1P1 [4],1.0-1.1
same,"Tracer uptake in lumbar spinal cord, sham",S1P1 [4],0.98±0.09 SUV
same,Max SUV value in total brain,[5],~2.4 SUV
same,"Blood-brain barrier crossing, NHP brain",[5]; listed as 18F-TZ4881,able to cross the blood brain barrier; also recorded: able to cross the BBB
same,Time to max SUV in total brain,[5],~5 min

# From patent US10676467B2 (Washington University, priority 2017, dated 2020)
